We go through 24 molecules from PubChem BioAssay AID330 (DTP/NCI, 2004).

The assay relates to P388 leukemia ip, CD2F1 mice, survival T/C. Description: NCI In Vivo Anticancer Drug Screen. Data for tumor model P388 Leukemia (intraperitoneal) in CD2F1 (CDF1) mice. The conditions noted are these: endpoint: median survival time, higher = longer survival. In outline: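 Mice carrying the transplanted tumor received test compound or vehicle. Survival was recorded in each group, and the value is the treated-group measurement divided by that of the vehicle-treated control group.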

Setting [1] is: dose: 12.5 mg/kg/injection, schedule: Q01DX005 (ip), vehicle: Klucel (hydroxypropylcellulose) (HPC).
Where [2] appears, read: dose: 25.0 mg/kg/injection, schedule: Q01DX005 (ip), vehicle: Klucel (hydroxypropylcellulose) (HPC).
The mark [3] stands for this setting: dose: 50.0 mg/kg/injection, schedule: Q01DX005 (ip), vehicle: Klucel (hydroxypropylcellulose) (HPC).
Where [4] appears, read: dose: 50.0 mg/kg/injection, schedule: Q01DX009 (ip), vehicle: saline with Tween-80.
Where [5] appears, read: dose: 100.0 mg/kg/injection, schedule: Q01DX009 (ip), vehicle: saline with Tween-80.
Setting [6] is: dose: 200.0 mg/kg/injection, schedule: Q01DX009 (ip), vehicle: saline with Tween-80.
[7] abbreviates: dose: 100.0 mg/kg/injection, schedule: Q01DX001 (ip), vehicle: saline with Tween-80.
The mark [8] stands for this setting: dose: 200.0 mg/kg/injection, schedule: Q01DX001 (ip), vehicle: saline with Tween-80.
Setting [9] is: dose: 400.0 mg/kg/injection, schedule: Q01DX001 (ip), vehicle: saline with Tween-80.
Where [10] appears, read: dose: 60.0 mg/kg/injection, schedule: Q01DX005 (ip), vehicle: saline with Tween-80.
Where [11] appears, read: dose: 12.5 mg/kg/injection, schedule: Q01DX009 (ip), vehicle: saline.
Setting [12] is: dose: 25.0 mg/kg/injection, schedule: Q01DX009 (ip), vehicle: saline.
[13] abbreviates: dose: 50.0 mg/kg/injection, schedule: Q01DX009 (ip), vehicle: saline.
[14] abbreviates: dose: 50.0 mg/kg/injection, schedule: Q01DX009 (ip), vehicle: Klucel (hydroxypropylcellulose) (HPC).
Setting [15] is: dose: 100.0 mg/kg/injection, schedule: Q01DX009 (ip), vehicle: Klucel (hydroxypropylcellulose) (HPC).
[16] abbreviates: dose: 200.0 mg/kg/injection, schedule: Q01DX009 (ip), vehicle: Klucel (hydroxypropylcellulose) (HPC).
[17] abbreviates: dose: 50.0 mg/kg/injection, schedule: Q01DX005 (ip), vehicle: saline with Tween-80.

The structures appear in SMILES notation. Values joined by “and” are separate entries in the source; they are usually repeats but may differ in a detail not shown here. Equal values may be shown once. Inconclusive results and toxic doses are left out.

Turning to `CCN(CC)c1ccc(C(=N)c2ccc(N(C)C)cc2)cc1`, the T/C under setting [1] was 99 % of control; the T/C under setting [2] is 99 % of control; the T/C under setting [3] is 90 % of control and 92 % of control.
Take `CCOC(=O)/C(=N/NS(=O)(=O)c1c(C)cc(C)cc1C)c1ccco1`: the T/C runs as follows: under setting [4], 113 % of control; under setting [5], 106 % of control; under setting [6], 104 % of control.
In the case of `FC(F)(F)c1ccc2[nH]c3c(c2c1)CCCC3`, the T/C runs as follows: under setting [7], 102 % of control; under setting [8], 102 % of control; under setting [9], 103 % of control.
`O=C(CNC(=O)Nc1ccc(Cl)c(Cl)c1)N/N=C/c1ccccc1F`: the T/C is 104 % of control (dose: 3.75 mg/kg/injection, schedule: Q01DX005 (ip), vehicle: saline with Tween-80); 102 % of control (dose: 7.5 mg/kg/injection, schedule: Q01DX005 (ip), vehicle: saline with Tween-80); 102 % of control and 93 % of control (dose: 15.0 mg/kg/injection, schedule: Q01DX005 (ip), vehicle: saline with Tween-80); 95 % of control under setting [10].
With `[Cl][Pt+2][Cl].[NH-]c1ccccc1[NH-]`, the T/C is 163 % of control (dose: 6.25 mg/kg/injection, schedule: Q04DX002 (ip), vehicle: saline with Tween-80); 193 % of control (dose: 12.5 mg/kg/injection, schedule: Q04DX002 (ip), vehicle: saline with Tween-80); 167 % of control (dose: 12.5 mg/kg/injection, schedule: Q04DX002 (ip), vehicle: saline); 110 % of control (dose: 25.0 mg/kg/injection, schedule: Q04DX002 (ip), vehicle: saline with Tween-80).
For `[Cl][Cu][Cl].c1ccc2[nH]cnc2c1.c1ccc2[nH]cnc2c1`, the T/C is, setting by setting: (dose: 6.25 mg/kg/injection, schedule: Q01DX009 (ip), vehicle: Klucel (hydroxypropylcellulose) (HPC)) 113 % of control; (dose: 12.5 mg/kg/injection, schedule: Q01DX009 (ip), vehicle: Klucel (hydroxypropylcellulose) (HPC)) 104 % of control; (dose: 25.0 mg/kg/injection, schedule: Q01DX009 (ip), vehicle: Klucel (hydroxypropylcellulose) (HPC)) 100 % of control.
`O=C(NC1c2ccccc2Oc2ccccc21)c1ccccc1`: the T/C was 93 % of control (dose: 12.5 mg/kg/injection, schedule: Q04DX003 (ip), vehicle: distilled water + Tween-80); 92 % of control (dose: 25.0 mg/kg/injection, schedule: Q04DX003 (ip), vehicle: distilled water + Tween-80); 93 % of control (dose: 50.0 mg/kg/injection, schedule: Q04DX003 (ip), vehicle: distilled water + Tween-80); 93 % of control (dose: 100.0 mg/kg/injection, schedule: Q04DX003 (ip), vehicle: distilled water + Tween-80).
In the case of `CN(c1ccccc1)S(=O)(=O)c1ccc2ccccc2c1O`, the T/C is 101 % of control under setting [7], 100 % of control under setting [8] and 91 % of control under setting [9].
Turning to `CNC(=O)Nc1ccncc1`, the T/C by setting is: under setting [11], 112 % of control; under setting [12], 102 % of control; under setting [13], 100 % of control.
For `CC(CCC(=O)O)(c1cc(Br)c(O)c(Br)c1)c1cc(Br)c(O)c(Br)c1`, the T/C by setting is: (dose: 100.0 mg/kg/injection, schedule: Q04DX003 (ip), vehicle: other) 100 % of control; (dose: 200.0 mg/kg/injection, schedule: Q04DX003 (ip), vehicle: other) 100 % of control; (dose: 400.0 mg/kg/injection, schedule: Q04DX003 (ip), vehicle: other) 100 % of control.
With `O=c1[nH]c2cc(Cl)ccc2c(=O)o1`, the T/C reads like this: under setting [14], 112 % of control; under setting [15], 100 % of control; under setting [16], 103 % of control.
On to `CCCCCCCCCCCCC1=NCC[N+]1(CCO)CC(O)COc1cc(Cl)c(Cl)cc1Cl` (stereo not drawn), for which the T/C under setting [11] is 105 % of control; the T/C under setting [12] was 105 % of control; the T/C under setting [13] is 102 % of control and 95 % of control; the T/C (dose: 100.0 mg/kg/injection, schedule: Q01DX009 (ip), vehicle: saline) was 90 % of control.
`CN(C)CCOC1OCN(C)CC1(C)C` (stereo not drawn): the T/C reads like this: under setting [4], 104 % of control; under setting [5], 111 % of control; under setting [6], 110 % of control.
As for `Cn1c2c(c3cc(Cl)cc(Cl)c31)-c1ncncc1CC2`, the T/C is 98 % of control (dose: 100.0 mg/kg/injection, schedule: Q04DX002 (ip), vehicle: saline with Tween-80); 98 % of control (dose: 200.0 mg/kg/injection, schedule: Q04DX002 (ip), vehicle: saline with Tween-80); 95 % of control (dose: 400.0 mg/kg/injection, schedule: Q04DX002 (ip), vehicle: saline with Tween-80).
As for `CP1(=S)C=C(N2CCCC2)CC1` (stereo not drawn), the T/C by setting is: under setting [14], 107 % of control and 109 % of control; under setting [15], 99 % of control and 120 % of control; under setting [16], 104 % of control and 95 % of control.
With `CCOC(=O)c1cc(-c2ccccc2)c(=O)c(OC)nc1-c1ccccc1`, the T/C (dose: 25.0 mg/kg/injection, schedule: Q01DX005 (ip), vehicle: saline with Tween-80) is 108 % of control and the T/C under setting [17] was 118 % of control.
As for `O=C1OC2(c3ccccc31)c1cc(I)c(O)c(I)c1Oc1c2cc(I)c(O)c1I`, the T/C is 91 % of control (dose: 100.0 mg/kg/injection, schedule: Q04DX003 (ip), vehicle: saline with Tween-80) and 95 % of control (dose: 200.0 mg/kg/injection, schedule: Q04DX003 (ip), vehicle: saline with Tween-80).
For `O=S(=O)(Nc1cccc(C(F)(F)F)c1)c1ccc(F)cc1`, the T/C runs as follows: under setting [10], 94 % of control; (dose: 120.0 mg/kg/injection, schedule: Q01DX005 (ip), vehicle: saline with Tween-80) 100 % of control; (dose: 240.0 mg/kg/injection, schedule: Q01DX005 (ip), vehicle: saline with Tween-80) 93 % of control.
Turning to `C1=CC(=C(c2ccccc2)c2ccccc2)C=C1`, the T/C runs as follows: under setting [14], 98 % of control; under setting [4], 107 % of control; under setting [15], 100 % of control; under setting [5], 104 % of control; under setting [16], 101 % of control; under setting [6], 102 % of control. In addition, the T/C (dose: 400.0 mg/kg/injection, schedule: Q01DX009 (ip), vehicle: saline with Tween-80) is 102 % of control.
Consider `COc1ccc(/C=N/Nc2cc(C)nc3ccc(F)cc23)c2ccccc12`, for which the T/C runs as follows: under setting [1], 97 % of control; under setting [2], 98 % of control; under setting [3], 99 % of control.
The corresponding values for `Cc1ccc(C2=CSC3=NCCN23)cc1Cl` are 99 % of control, 101 % of control and 107 % of control.
As to `CN1CCC2CC1Cc1ccc(NS(C)(=O)=O)cc12` (stereo not drawn), the T/C under setting [17] is 98 % of control; the T/C (dose: 100.0 mg/kg/injection, schedule: Q01DX005 (ip), vehicle: saline with Tween-80) was 100 % of control; the T/C (dose: 200.0 mg/kg/injection, schedule: Q01DX005 (ip), vehicle: saline with Tween-80) is 91 % of control.
For the molecule `CC(=O)NC1C(NNC(=O)c2ccncc2)OC(CO)C(O)C1O` (stereo not drawn), the T/C reads like this: (dose: 50.0 mg/kg/injection, schedule: Q01DX005 (ip), vehicle: saline) 100 % of control; (dose: 100.0 mg/kg/injection, schedule: Q01DX005 (ip), vehicle: saline) 96 % of control; (dose: 200.0 mg/kg/injection, schedule: Q01DX005 (ip), vehicle: saline) 104 % of control.
For the molecule `NC(CCC(=O)NCCCC(=O)O)C(=O)O` (stereo not drawn), the T/C runs as follows: (dose: 100.0 mg/kg/injection, schedule: Q04DX002 (ip), vehicle: saline) 105 % of control; (dose: 200.0 mg/kg/injection, schedule: Q04DX002 (ip), vehicle: saline) 113 % of control; (dose: 400.0 mg/kg/injection, schedule: Q04DX002 (ip), vehicle: saline) 108 % of control.
